ChEMBL document CHEMBL5126566, “Comparison of three zinc binding groups for HDAC inhibitors - A potency, selectivity and enzymatic kinetics study” (Bioorg Med Chem Lett, 2022)
Active and inactive are the calls of the source. The rule behind the calls is not given here.

How the values were obtained:
[1] = molecular target: T1, Histone deacetylase 3 (Homo sapiens, UniProt O15379); test: Inhibition of HDAC3 (unknown origin) preincubated for 60 mins
[2] = molecular target: T2, Histone deacetylase 1 (Homo sapiens, UniProt Q13547); test: Inhibition of HDAC1 (unknown origin) preincubated for 5 mins
T2 sequence (Q13547 whole entry): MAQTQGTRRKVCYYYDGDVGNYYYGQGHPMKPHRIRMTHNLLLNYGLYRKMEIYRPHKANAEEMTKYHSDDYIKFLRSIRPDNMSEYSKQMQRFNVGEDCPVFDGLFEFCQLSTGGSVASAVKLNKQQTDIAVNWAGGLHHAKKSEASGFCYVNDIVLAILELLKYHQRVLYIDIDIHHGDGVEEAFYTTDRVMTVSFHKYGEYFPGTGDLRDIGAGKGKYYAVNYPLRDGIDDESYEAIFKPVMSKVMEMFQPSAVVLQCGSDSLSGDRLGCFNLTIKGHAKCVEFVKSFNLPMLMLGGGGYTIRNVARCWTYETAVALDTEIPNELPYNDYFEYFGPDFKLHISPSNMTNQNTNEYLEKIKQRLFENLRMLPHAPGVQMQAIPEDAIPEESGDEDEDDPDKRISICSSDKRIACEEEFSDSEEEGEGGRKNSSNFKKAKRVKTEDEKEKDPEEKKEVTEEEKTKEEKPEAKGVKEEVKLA

[3] = molecular target: T3, Histone deacetylase 2 (Homo sapiens, UniProt Q92769); test: Mixed-type inhibition of HDAC2 (unknown origin) at 17.8 to 60 nM by Lineweaver-Burk plot analysis; conditions: dose 17.8-60 nM
T3 sequence (Q92769 whole entry): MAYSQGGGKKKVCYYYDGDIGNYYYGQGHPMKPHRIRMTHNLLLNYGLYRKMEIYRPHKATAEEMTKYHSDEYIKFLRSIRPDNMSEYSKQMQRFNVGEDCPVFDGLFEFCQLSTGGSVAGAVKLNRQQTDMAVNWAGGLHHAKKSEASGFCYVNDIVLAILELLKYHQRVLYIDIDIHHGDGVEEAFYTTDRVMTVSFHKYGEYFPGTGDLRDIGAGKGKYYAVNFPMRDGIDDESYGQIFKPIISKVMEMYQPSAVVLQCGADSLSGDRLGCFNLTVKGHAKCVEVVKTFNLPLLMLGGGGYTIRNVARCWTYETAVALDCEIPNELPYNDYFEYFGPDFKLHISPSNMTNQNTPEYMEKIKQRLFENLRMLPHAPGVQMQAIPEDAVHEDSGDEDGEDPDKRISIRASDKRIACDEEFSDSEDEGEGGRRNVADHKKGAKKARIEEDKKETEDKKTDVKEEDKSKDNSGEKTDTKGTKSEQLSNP

[4] = molecular target: T3, Histone deacetylase 2; test: Inhibition of HDAC2 (unknown origin) preincubated for 120 mins
[5] = molecular target: Histone deacetylase 5 (Homo sapiens, UniProt Q9UQL6); test: Inhibition of HDAC5 (unknown origin)
Chain of Histone deacetylase 5 (Q9UQL6 whole entry): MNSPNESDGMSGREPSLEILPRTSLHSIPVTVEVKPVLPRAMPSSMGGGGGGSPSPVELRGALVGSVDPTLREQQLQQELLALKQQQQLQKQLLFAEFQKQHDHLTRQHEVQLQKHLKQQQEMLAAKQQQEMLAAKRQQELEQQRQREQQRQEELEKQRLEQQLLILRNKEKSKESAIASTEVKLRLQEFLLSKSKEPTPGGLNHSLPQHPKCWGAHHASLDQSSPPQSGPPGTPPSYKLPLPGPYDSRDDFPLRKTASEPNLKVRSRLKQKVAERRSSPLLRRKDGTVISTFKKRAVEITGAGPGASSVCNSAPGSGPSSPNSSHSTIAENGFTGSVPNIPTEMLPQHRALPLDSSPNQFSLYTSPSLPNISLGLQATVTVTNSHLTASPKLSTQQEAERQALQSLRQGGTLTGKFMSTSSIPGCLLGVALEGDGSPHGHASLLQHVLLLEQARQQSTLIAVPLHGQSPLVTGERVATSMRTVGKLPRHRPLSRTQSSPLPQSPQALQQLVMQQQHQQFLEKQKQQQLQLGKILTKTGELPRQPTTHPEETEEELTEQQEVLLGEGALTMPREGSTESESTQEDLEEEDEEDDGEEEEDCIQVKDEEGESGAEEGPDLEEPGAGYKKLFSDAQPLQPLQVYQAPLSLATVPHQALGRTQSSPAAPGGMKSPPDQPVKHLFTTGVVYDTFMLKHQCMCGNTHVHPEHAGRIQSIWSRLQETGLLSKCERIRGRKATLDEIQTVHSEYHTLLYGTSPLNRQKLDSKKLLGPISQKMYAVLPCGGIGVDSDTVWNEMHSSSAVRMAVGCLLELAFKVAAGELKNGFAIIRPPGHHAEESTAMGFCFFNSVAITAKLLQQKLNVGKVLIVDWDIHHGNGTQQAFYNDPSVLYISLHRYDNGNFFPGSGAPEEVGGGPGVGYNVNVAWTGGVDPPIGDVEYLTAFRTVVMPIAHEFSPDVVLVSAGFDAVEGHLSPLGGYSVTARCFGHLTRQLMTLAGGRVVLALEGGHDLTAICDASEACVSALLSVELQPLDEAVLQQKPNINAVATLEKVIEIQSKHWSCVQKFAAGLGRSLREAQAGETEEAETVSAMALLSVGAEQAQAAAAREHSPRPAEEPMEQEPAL

[6] = molecular target: T1, Histone deacetylase 3; test: Inhibition of HDAC3 (unknown origin) preincubated for 90 mins
[7] = molecular target: T2, Histone deacetylase 1; test: Inhibition of HDAC1 (unknown origin)
[8] = molecular target: T1, Histone deacetylase 3; test: Inhibition of HDAC3 (unknown origin) preincubated for 30 mins
[9] = molecular target: T1, Histone deacetylase 3; test: Inhibition of HDAC3 (unknown origin)
[10] = molecular target: T2, Histone deacetylase 1; test: Inhibition of HDAC1 (unknown origin) preincubated for 120 mins
[11] = molecular target: T2, Histone deacetylase 1; test: Inhibition of HDAC1 (unknown origin) preincubated for 90 mins
[12] = molecular target: T1, Histone deacetylase 3; test: Inhibition of HDAC3 (unknown origin) preincubated for 120 mins
[13] = molecular target: T4, Protein deacetylase HDAC6 (Homo sapiens, UniProt Q9UBN7); test: Inhibition of HDAC6 (unknown origin)
T4 sequence (Q9UBN7 whole entry): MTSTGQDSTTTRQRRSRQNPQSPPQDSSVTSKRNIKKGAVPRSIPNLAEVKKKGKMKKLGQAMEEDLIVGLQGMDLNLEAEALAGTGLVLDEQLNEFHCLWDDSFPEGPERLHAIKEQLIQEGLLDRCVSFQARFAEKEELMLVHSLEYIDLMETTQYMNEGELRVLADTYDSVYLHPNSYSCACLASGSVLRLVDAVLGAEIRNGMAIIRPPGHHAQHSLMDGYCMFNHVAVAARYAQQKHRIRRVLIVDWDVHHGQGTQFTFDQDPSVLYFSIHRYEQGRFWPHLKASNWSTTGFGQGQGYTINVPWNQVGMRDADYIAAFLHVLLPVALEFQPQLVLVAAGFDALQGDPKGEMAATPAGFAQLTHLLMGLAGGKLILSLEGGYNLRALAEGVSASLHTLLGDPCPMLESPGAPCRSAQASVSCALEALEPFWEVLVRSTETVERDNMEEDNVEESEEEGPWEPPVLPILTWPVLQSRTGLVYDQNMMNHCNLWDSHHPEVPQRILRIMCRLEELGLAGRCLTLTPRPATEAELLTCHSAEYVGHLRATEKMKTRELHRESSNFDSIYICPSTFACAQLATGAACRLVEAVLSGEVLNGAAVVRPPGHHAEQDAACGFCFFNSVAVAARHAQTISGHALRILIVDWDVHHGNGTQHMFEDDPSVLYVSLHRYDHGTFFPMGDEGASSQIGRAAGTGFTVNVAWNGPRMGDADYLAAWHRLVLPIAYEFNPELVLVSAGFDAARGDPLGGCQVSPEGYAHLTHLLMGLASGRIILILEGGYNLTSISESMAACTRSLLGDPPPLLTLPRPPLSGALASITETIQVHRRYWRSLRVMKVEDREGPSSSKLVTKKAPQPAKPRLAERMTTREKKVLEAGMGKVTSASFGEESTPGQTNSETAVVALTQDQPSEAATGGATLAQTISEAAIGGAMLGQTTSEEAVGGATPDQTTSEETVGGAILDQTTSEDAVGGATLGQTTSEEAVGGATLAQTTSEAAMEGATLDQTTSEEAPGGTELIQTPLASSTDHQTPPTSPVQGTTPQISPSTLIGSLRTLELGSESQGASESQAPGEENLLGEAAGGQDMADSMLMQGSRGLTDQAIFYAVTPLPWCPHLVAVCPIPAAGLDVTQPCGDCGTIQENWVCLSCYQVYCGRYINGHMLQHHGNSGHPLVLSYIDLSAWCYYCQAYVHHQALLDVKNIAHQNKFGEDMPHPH

[14] = molecular target: T2, Histone deacetylase 1; test: Inhibition of HDAC1 (unknown origin) preincubated for 30 mins
[15] = molecular target: Histone deacetylase 4 (Homo sapiens, UniProt P56524); test: Inhibition of HDAC4 (unknown origin)
Chain of Histone deacetylase 4 (P56524 whole entry): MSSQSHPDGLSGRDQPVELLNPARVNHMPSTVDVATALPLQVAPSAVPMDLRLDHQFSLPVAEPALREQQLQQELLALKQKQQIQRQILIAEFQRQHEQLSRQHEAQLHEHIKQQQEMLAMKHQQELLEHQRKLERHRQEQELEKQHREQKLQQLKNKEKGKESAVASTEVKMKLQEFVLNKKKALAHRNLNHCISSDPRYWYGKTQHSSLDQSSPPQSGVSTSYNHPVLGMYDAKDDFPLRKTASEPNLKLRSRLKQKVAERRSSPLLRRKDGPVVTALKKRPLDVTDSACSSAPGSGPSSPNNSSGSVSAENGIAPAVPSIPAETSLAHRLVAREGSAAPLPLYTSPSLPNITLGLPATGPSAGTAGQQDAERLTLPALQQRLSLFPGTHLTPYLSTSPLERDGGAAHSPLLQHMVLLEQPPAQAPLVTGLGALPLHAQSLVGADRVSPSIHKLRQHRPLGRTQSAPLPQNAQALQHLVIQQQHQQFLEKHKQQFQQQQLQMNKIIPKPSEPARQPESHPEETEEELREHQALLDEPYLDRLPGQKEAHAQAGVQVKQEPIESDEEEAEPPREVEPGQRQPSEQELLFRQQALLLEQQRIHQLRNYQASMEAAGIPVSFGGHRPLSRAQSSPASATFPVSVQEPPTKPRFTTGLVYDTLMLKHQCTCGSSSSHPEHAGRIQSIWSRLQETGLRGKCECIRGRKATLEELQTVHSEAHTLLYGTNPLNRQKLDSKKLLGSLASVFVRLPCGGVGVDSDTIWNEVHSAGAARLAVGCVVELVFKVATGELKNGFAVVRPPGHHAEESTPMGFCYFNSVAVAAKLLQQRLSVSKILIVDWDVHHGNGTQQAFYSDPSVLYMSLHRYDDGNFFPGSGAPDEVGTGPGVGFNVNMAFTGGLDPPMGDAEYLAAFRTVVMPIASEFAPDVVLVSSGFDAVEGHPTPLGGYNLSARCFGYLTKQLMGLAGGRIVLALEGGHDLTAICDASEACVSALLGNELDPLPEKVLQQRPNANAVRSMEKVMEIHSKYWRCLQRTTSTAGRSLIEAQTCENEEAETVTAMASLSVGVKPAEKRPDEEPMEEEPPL

[16] = molecular target: T1, Histone deacetylase 3; test: Inhibition of HDAC3 (unknown origin) at 1 uM preincubated for 1 hr followed by 100-fold dilution and subsequent substrate addition measured after 1 hr; conditions: time 2.0 hrs
[17] = molecular target: Histone deacetylase (Homo sapiens) (UniProt Q13547+O15379+Q9UBN7+Q92769+Q9UQL6+Q8WUI4+Q9BY41+Q96DB2+P56524+Q9UKV0+Q969S8); test: Inhibition of HDAC in human MV4-11 cells assessed as histone H3 acetylation preincubated for 3 hrs followed by compound washout and measured after 6 hrs by Western blot analysis; assay type: cell-based
[18] = molecular target: T1, Histone deacetylase 3; test: Mixed-type inhibition of HDAC3 (unknown origin) at 17.8 to 60 nM by Lineweaver-Burk plot analysis; conditions: dose 17.8-60 nM
[19] = molecular target: Histone deacetylase 9 (Homo sapiens, UniProt Q9UKV0); test: Inhibition of HDAC9 (unknown origin)
Chain of Histone deacetylase 9 (Q9UKV0 whole entry): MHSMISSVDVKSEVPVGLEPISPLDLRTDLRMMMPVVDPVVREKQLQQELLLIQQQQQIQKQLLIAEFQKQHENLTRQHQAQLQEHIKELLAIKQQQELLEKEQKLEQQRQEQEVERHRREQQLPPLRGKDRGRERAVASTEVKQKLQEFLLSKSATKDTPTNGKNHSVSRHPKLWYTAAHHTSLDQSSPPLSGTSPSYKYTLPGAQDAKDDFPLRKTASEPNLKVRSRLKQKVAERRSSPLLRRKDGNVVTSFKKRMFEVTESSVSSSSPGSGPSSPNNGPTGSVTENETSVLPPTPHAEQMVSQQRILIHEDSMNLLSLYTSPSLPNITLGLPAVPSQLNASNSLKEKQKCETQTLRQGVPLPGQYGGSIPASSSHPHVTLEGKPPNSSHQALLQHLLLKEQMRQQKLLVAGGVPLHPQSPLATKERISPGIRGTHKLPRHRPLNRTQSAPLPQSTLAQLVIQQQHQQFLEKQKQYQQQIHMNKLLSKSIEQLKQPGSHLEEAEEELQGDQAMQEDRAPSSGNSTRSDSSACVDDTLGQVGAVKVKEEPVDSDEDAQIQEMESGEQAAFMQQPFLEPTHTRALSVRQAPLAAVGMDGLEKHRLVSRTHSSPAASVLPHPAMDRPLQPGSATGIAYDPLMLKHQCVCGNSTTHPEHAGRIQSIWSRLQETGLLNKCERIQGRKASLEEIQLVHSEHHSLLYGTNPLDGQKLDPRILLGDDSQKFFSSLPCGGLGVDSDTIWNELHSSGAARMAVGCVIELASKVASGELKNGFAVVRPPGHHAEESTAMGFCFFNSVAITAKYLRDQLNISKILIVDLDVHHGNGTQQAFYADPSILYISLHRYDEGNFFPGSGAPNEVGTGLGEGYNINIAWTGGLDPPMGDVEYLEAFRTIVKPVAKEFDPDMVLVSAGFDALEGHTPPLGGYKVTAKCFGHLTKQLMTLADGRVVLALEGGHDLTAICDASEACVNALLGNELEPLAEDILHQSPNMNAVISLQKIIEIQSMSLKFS

[20] = molecular target: T3, Histone deacetylase 2; test: Inhibition of HDAC2 (unknown origin) preincubated for 30 mins
[21] = molecular target: T1, Histone deacetylase 3; test: Inhibition of HDAC3 (unknown origin) preincubated for 5 mins
[22] = molecular target: T3, Histone deacetylase 2; test: Inhibition of HDAC2 (unknown origin) at 1 uM preincubated for 1 hr followed by 100-fold dilution and subsequent substrate addition measured after 1 hr; conditions: time 2.0 hrs
[23] = molecular target: T2, Histone deacetylase 1; test: Inhibition of HDAC1 (unknown origin) at 1 uM preincubated for 1 hr followed by 100-fold dilution and subsequent substrate addition measured after 1 hr; conditions: time 2.0 hrs
[24] = molecular target: T3, Histone deacetylase 2; test: Inhibition of HDAC2 (unknown origin)
[25] = molecular target: T3, Histone deacetylase 2; test: Inhibition of HDAC2 (unknown origin) preincubated for 5 mins
[26] = molecular target: T5, Polyamine deacetylase HDAC10 (Homo sapiens, UniProt Q969S8); test: Inhibition of HDAC10 (unknown origin)
T5 sequence (Q969S8 whole entry): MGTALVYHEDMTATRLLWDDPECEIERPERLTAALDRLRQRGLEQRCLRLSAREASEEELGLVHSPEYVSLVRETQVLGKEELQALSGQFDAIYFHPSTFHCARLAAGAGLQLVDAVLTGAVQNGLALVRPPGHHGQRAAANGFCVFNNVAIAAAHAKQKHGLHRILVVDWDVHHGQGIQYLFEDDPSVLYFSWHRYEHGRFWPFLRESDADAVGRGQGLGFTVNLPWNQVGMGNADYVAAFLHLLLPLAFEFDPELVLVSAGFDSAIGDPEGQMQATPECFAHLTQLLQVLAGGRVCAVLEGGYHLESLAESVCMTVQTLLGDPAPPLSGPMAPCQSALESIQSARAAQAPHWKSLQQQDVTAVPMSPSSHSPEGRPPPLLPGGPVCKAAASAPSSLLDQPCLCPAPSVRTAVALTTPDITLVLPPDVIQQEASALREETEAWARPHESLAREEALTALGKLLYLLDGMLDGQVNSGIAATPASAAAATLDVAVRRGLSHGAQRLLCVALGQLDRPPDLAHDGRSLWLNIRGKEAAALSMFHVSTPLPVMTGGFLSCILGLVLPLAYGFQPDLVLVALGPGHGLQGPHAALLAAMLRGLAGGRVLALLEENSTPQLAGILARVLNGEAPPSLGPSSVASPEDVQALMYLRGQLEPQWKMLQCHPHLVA

[27] = molecular target: T6, Histone deacetylase 11 (Homo sapiens, UniProt Q96DB2); test: Inhibition of HDAC11 (unknown origin)
T6 sequence (Q96DB2 whole entry): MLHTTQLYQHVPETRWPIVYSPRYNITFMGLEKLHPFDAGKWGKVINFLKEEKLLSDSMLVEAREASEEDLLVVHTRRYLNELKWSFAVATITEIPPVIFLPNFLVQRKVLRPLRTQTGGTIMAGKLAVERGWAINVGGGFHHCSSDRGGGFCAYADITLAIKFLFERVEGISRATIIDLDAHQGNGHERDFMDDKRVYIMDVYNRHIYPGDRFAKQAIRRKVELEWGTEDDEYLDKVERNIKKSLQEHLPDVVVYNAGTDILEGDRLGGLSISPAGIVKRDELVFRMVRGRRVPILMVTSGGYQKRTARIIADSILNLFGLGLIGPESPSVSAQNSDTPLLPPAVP

[28] = test system: MV4-11; test: Antiproliferative activity against human MV4-11 cells; assay type: functional, cell-based
[29] = molecular target: T3, Histone deacetylase 2; test: Inhibition of HDAC2 (unknown origin) preincubated for 90 mins
[30] = molecular target: T7, Histone deacetylase 8 (Homo sapiens, UniProt Q9BY41); test: Inhibition of HDAC8 (unknown origin)
T7 sequence (Q9BY41 whole entry): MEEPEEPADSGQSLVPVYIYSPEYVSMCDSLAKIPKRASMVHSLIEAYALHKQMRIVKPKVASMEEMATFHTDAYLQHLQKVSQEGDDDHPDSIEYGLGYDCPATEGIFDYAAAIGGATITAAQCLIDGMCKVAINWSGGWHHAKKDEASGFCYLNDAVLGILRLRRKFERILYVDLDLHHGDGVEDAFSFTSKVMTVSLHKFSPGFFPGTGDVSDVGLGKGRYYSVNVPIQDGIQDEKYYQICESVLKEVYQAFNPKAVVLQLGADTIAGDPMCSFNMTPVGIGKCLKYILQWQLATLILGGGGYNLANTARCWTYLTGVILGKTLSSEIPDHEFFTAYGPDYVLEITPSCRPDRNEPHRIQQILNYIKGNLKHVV

[31] = molecular target: T3, Histone deacetylase 2; test: Inhibition of HDAC2 (unknown origin) preincubated for 60 mins
[32] = molecular target: T2, Histone deacetylase 1; test: Inhibition of HDAC1 (unknown origin) preincubated for 60 mins
[33] = molecular target: T2, Histone deacetylase 1; test: Mixed-type inhibition of HDAC1 (unknown origin) at 17.8 to 60 nM by Lineweaver-Burk plot analysis; conditions: dose 17.8-60 nM
[34] = molecular target: T8, Histone deacetylase 7 (Homo sapiens, UniProt Q8WUI4); test: Inhibition of HDAC7 (unknown origin)
T8 sequence (Q8WUI4 whole entry): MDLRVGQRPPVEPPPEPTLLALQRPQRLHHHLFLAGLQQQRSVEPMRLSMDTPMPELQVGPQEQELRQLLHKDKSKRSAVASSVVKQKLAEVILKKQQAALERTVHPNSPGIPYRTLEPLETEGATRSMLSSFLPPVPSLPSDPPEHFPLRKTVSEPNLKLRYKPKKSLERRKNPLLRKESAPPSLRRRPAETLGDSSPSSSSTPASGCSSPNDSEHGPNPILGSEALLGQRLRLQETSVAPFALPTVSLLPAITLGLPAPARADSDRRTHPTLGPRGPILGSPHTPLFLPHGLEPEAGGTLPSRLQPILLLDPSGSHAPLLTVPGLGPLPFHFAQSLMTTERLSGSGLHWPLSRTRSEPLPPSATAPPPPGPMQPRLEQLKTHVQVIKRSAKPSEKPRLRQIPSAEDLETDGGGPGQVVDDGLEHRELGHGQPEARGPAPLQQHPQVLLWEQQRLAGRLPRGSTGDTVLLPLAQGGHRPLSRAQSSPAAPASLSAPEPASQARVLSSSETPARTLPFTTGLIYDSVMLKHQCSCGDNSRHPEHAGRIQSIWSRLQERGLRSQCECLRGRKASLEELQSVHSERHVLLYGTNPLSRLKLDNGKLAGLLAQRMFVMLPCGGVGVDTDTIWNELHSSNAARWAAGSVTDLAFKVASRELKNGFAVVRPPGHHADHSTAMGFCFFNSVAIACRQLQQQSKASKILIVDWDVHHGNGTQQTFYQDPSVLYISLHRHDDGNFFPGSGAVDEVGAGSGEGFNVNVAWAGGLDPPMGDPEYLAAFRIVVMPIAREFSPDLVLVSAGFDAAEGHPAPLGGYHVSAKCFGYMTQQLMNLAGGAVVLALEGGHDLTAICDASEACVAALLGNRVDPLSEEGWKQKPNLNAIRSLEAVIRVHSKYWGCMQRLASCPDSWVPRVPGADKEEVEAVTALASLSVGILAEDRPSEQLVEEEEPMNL

T1 sequence (O15379 whole entry): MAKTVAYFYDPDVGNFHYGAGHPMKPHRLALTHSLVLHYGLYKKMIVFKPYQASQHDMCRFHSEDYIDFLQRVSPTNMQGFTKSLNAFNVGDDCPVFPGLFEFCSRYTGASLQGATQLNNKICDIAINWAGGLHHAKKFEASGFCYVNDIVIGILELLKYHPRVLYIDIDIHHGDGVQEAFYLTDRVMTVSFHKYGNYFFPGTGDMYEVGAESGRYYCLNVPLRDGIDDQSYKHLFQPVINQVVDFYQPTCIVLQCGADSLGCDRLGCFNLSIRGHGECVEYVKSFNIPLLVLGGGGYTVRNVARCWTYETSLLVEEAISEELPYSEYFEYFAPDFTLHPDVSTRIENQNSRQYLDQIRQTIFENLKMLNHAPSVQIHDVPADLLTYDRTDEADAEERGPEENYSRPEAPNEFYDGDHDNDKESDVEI

In the case of `CCCNNC(=O)CCCCCCC(=O)Nc1ccccc1`, the IC50 [1] is reported as 22.9 nM, the IC50 [2] is reported as 176 nM and the inhibition [3] is reported as “Active”. For the same compound, the IC50 [4] was 146 nM, the IC50 [5] was greater than 10 µM and the IC50 [6] was 17.2 nM. It also gave an IC50 [7] of 45.2 nM, an IC50 [8] of 30.1 nM and an IC50 [9] of 20.3 nM. The IC50 [10] was 48.4 nM, the IC50 [11] was 41.8 nM and the IC50 [12] was 17.7 nM. It also gave an IC50 [13] greater than 10 µM, an IC50 [14] of 89.2 nM and an IC50 [15] greater than 10 µM. The inhibition [16] was “Active”, the inhibition [17] was “Active” and the inhibition [18] was “Active”. For the same compound, the IC50 [19] was greater than 10 µM, the IC50 [20] was 304 nM and the IC50 [21] was 58.2 nM. The inhibition [22] was “Active”, the inhibition [23] was “Active” and the IC50 [24] was 125 nM. For the same compound, the IC50 [25] was 406 nM, the IC50 [26] was greater than 10 µM and the IC50 [27] was greater than 10 µM. It also gave an IC50 [28] of 587 nM, an IC50 [29] of 163 nM and an IC50 [30] greater than 10 µM. The IC50 [31] was 214 nM, the IC50 [32] was 62.9 nM and the inhibition [33] was “Active”. The IC50 [34] was greater than 10 µM.
